Here are results for 75 compounds from PubChem BioAssay AID1996.

Values after ≈ are worked out from the molar mass of the structure shown.

The conditions of this series: buffer; pH 7.4; 200.0 µM.
For the compound `CCCn1c(COc2ccccc2OC)nc2ccccc21`, the kinetic solubility – broadly, solubility judged after dilution from a stock solution rather than from solid – came out at 39.5 µg/mL (≈ 133 µM). Under `Cc1nc2ccccc2c(=O)n1-c1ccc(-c2ccccc2)cc1` stands less than 0.3 µg/mL; under `Cc1ccc2cccc(OCC(=O)N3CCc4ccccc43)c2n1`, less than 0.3 µg/mL; under `CCN(CC)CC(=O)Nc1sc(C)cc1C(=O)c1ccc(C)cc1`, 0.4 µg/mL (≈ 1.16 µM). Under `Cc1cc(=O)n2cccc(O)c2n1.Cl` stands 21.7 µg/mL.

The compound `COc1cccc(C(=O)Nc2cccc(NC(=O)c3ccccc3Cl)c2)c1` registered a kinetic solubility of 7.4 µg/mL (≈ 19.4 µM). Take `CCC(OC(=O)c1nsc(Cl)c1Cl)C(=O)NC(C)(C)C` (stereo not given): the solubility (kinetic) was 46.6 µg/mL (≈ 137 µM).

The compound `O=C(COc1ccccc1F)OCC(=O)c1ccc([N+](=O)[O-])cc1` gave a solubility (kinetic) of 46.8 µg/mL (≈ 140 µM). Under `O=C(O)c1cc(-c2cccc([N+](=O)[O-])c2)nc2ccccc12` stands greater than 44.1 µg/mL; under `O=C(O)c1nn(-c2ccc(F)cc2)ccc1=O`, greater than 35.1 µg/mL. Under `CC1(c2ccccc2)CC(C)(C)N(C(N)=O)c2ccccc21` (stereo not given) stands 40.9 µg/mL (≈ 139 µM); under `Cc1nn(C)c(Cl)c1CN1CCN(C2CCCC2)C(CCO)C1` (stereo not given), greater than 51.1 µg/mL. `O=C(Nc1ccccc1F)c1ccccc1C(=O)Nc1ccccc1F` yielded a solubility (kinetic) of 32.5 µg/mL (≈ 92.2 µM). In turn, `Cc1nc(N2CCOCC2)[nH]c(=O)c1C` returned a solubility (kinetic) greater than 31.4 µg/mL.

In the case of `CC(NCC(O)c1ccc([N+](=O)[O-])cc1)C12CC3CC(CC(C3)C1)C2` (stereo not given), the kinetic solubility is 38.3 µg/mL (≈ 111 µM).

Regarding `CNC(=S)N(CCO)Cc1cc2cc3c(cc2[nH]c1=O)OCO3`, the kinetic solubility is 19.6 µg/mL (≈ 58.4 µM).

Compound `O=C(Nc1nc(-c2ccc(F)c(F)c2)cs1)Nc1ccc(F)cc1F` showed a kinetic solubility of less than 0.3 µg/mL. In turn, `O=C(OCC(=O)N1CCN(c2ccccc2)CC1)c1ccncc1` registered a solubility (kinetic) greater than 48.8 µg/mL. Under `CC(C)OC(=O)CSc1nc(Cc2ccccc2)nc2ccccc12` stands less than 0.4 µg/mL. Turning to `CC(=O)c1ccc(O)c(CSC2=NCCS2)c1`, the kinetic solubility stood at 35.2 µg/mL (≈ 132 µM). Under `CCOC(=O)c1csc(-c2ccc3c(c2)CCO3)n1` stands 32.3 µg/mL (≈ 117 µM). Under `CN(C)/C(=N\S(=O)(=O)c1ccc(Br)cc1)c1ccccc1` stands 50.2 µg/mL (≈ 137 µM). Compound `Cc1cc(C)c(C(=O)COC(=O)c2cccnc2Cl)c(C)c1` had a solubility (kinetic) of 7.3 µg/mL (≈ 23 µM). Under `O=C(CN1CCOCC1)Nc1cc([N+](=O)[O-])ccc1Cl` stands 9.8 µg/mL (≈ 32.7 µM). The compound `COc1ccc(C(O)Cc2nccn2C)cc1` (stereo not given) displayed a solubility (kinetic) greater than 34.8 µg/mL. Under `Cc1ccc[n+](CC(=O)Nc2cccc(Cl)c2)c1.[Cl-]` stands greater than 44.6 µg/mL; under `COC(=O)c1sccc1NC(=S)Nc1cc(C)ccc1OC`, 36.3 µg/mL (≈ 108 µM); under `Cc1ccnc(N2CCCC(C(=O)Nc3cccc(C)c3C)C2)n1` (stereo not given), 0.6 µg/mL (≈ 1.85 µM).

In the case of `Nc1ncnc(Nc2cccc(F)c2)n1`, the solubility (kinetic) was 30.6 µg/mL (≈ 149 µM).

For the compound `CCCc1nc2sc3c(c2c(=O)[nH]1)CCCC3`, the kinetic solubility is 1.3 µg/mL (≈ 5.23 µM). Under `Cc1cc(=O)[nH]c(SCC(=O)Nc2ccc(N3CCCCC3)cc2)n1` stands 28.5 µg/mL (≈ 79.5 µM). `COc1ccc(OCCn2cc(C=O)c3ccccc32)cc1` came in with a solubility (kinetic) of 14.4 µg/mL (≈ 48.8 µM).

The compound `CC1CCc2c(sc3[nH]c(=S)n(C)c(=O)c23)C1` (stereo not given) displayed a kinetic solubility of 4.2 µg/mL (≈ 15.8 µM). Under `COc1ccccc1NC(=O)CC1CCCC1` stands greater than 35 µg/mL; under `Cc1cccc(CC(=O)NCCN2CCOCC2)c1`, greater than 39.4 µg/mL. Under `Cc1cc(C)cc(OCC(=O)Nc2cnn(CCCC(=O)O)c2)c1` stands greater than 49.7 µg/mL.

In turn, `Cc1cc(C(=O)Nc2ccncc2)c(C)o1` returned a kinetic solubility greater than 32.4 µg/mL. Under `CCCOC(=O)C1=C(C)NC(=O)NC1c1cccc2ccccc12` (stereo not given) stands less than 0.3 µg/mL. In the case of `NC(=O)c1nc(-c2ccccc2)c(-c2ccccc2)[nH]c1=O`, the solubility (kinetic) is greater than 43.7 µg/mL. In turn, `Cl.Nc1cnccc1Oc1cccc(C(F)(F)F)c1` displayed a solubility (kinetic) greater than 43.6 µg/mL.

`O=C(COC(=O)CNC(=O)c1ccc(F)cc1)NC1CCCc2ccccc21` (stereo not given): the solubility (kinetic) is greater than 57.7 µg/mL. As to `O=C(Nc1cccc(F)c1)Nc1cccc(Cl)c1`, the solubility (kinetic) worked out at 2 µg/mL (≈ 7.56 µM). Under `CC(C)C(=O)N1CCN(c2ccccc2NC(=O)c2ccco2)CC1` stands 48 µg/mL (≈ 141 µM); under `COC(=O)Nc1nncs1`, greater than 23.9 µg/mL. Under `CCc1c(C)nc(SCC(=O)N2CCCCC2)[nH]c1=O` stands greater than 44.3 µg/mL; under `O=C(NC1CC1)C1CCN(C(=O)c2ccc(Cl)cc2Cl)CC1`, greater than 51.2 µg/mL; under `CCC(C)NC(=O)c1c(N)n(CCCOC)c2nc3ccccc3nc12` (stereo not given), 6.4 µg/mL (≈ 18 µM). Under `Clc1ccc(-c2csc(Nc3cccnc3)n2)cc1` stands 0.3 µg/mL (≈ 1.04 µM); under `Cc1cc(C(=O)N2CCCC(Nc3ccc(F)cc3)C2)c(C)o1` (stereo not given), greater than 47.5 µg/mL. The compound `CCC(=O)Nc1ccc(NC(=O)c2oc3ccccc3c2C)cc1` returned a kinetic solubility of 1.2 µg/mL (≈ 3.72 µM).

As to `N#CCC(=O)Nc1ncc(Cc2ccccc2Cl)s1`, the kinetic solubility amounted to 1 µg/mL (≈ 3.43 µM). For the compound `CN(C)c1ccc(C(=O)NCC(c2cccs2)N2CCOCC2)cc1` (stereo not given), the kinetic solubility stood at 49.3 µg/mL (≈ 137 µM).

In the case of `O=C(Nc1nc2ccccc2[nH]1)C1CCC1`, the kinetic solubility is 6 µg/mL (≈ 27.9 µM). The compound `COC(=O)c1sccc1NC(=O)Nc1ccccc1OC` returned a solubility (kinetic) of 40 µg/mL (≈ 131 µM).

As to `CC(C)(C)NCC(O)CON=C1c2ccccc2-c2ccccc21` (stereo not given), the kinetic solubility came out at 44.1 µg/mL (≈ 136 µM).

In turn, `Cn1cccc1C(=O)OCC(=O)NC(=O)c1ccc(Cl)cc1` yielded a kinetic solubility of 5.4 µg/mL (≈ 16.8 µM). Under `CC1CN(S(=O)(=O)c2cc(C(=O)N3CCCCC3C)ccc2Cl)CC(C)O1` (stereo not given) stands greater than 62.2 µg/mL.

Compound `CC(C)CCOc1ccc(C(=O)C[N+]2(C)CCOCC2)cc1.[I-]` came in with a kinetic solubility of 38.4 µg/mL. Under `Nc1c(C(=O)Nc2ccccc2)c2nc3ccccc3nc2n1-c1ccc(O)cc1` stands 0.7 µg/mL (≈ 1.77 µM); under `COc1cccc(NC(=O)C2C3C=CC(C3)C2C(=O)O)c1` (stereo not given), 27.1 µg/mL (≈ 94.3 µM); under `CC1=C(C(=O)NC(C)c2ccccc2)C2(CCC(C)CC2)OC1=O` (stereo not given), 8.4 µg/mL (≈ 25.7 µM).

For the compound `Nc1nc(SCC(=O)NC2CCCC2)[nH]c(=O)c1NC(=O)c1cccs1`, the solubility (kinetic) worked out at 4.4 µg/mL (≈ 11.2 µM). Under `c1ccc2c(c1)CCNC2c1ccncc1` (stereo not given) stands greater than 31.5 µg/mL; under `Clc1ccc2c(NCc3ccccn3)ccnc2c1`, greater than 40.5 µg/mL; under `COCCOn1c(SCCOC)nc2ccccc2c1=O`, greater than 46.6 µg/mL. Under `S=C(c1ccc(-c2ccc(Cl)cc2Cl)o1)N1CCCC1` stands less than 0.7 µg/mL; under `Cc1cc(C)cc(NC2=NCCCS2)c1`, 32.1 µg/mL (≈ 146 µM); under `CCOC(=O)C1(Cc2ccccc2C)CCCN(C(=O)CCC(=O)OC)C1` (stereo not given), 53 µg/mL (≈ 141 µM). Under `COc1cc(/C=C2\N=C(c3ccccc3)OC2=O)ccc1OC(C)=O` stands greater than 50.6 µg/mL; under `COc1ccc(NC(=O)CN(C)C(=O)c2ccc(=O)[nH]c2)cc1`, greater than 47.3 µg/mL; under `CN1CCN(C(=O)/C=C/c2ccc(Cl)c(Cl)c2)CC1`, 41 µg/mL (≈ 137 µM). `CC1=[N+]([O-])C(C)(C)N(O)C1(C)C` came in with a kinetic solubility greater than 25.8 µg/mL. Under `COC(=O)c1ccc(CN2C(=O)NC(CC(C)C)C2=O)cc1` (stereo not given) stands greater than 45.7 µg/mL; under `COc1ccc2cc(Br)ccc2c1CC(=O)N1CCCC1`, 3.2 µg/mL (≈ 9.19 µM); under `O=C(OCC(=O)N1CCOCC1)c1ccc2ccccc2c1O`, 28.2 µg/mL (≈ 89.4 µM).
